Test results published in PMC2872594 (Clinical Medicine. Oncology, 2009).
Like-named read-outs stand apart in the source and are kept apart here.

Assays:
[1] = system: reduced folate carrier (RFC); details: cited from earlier work
[2] = target: T1, dihydrofolate reductase (DHFR) (Homo sapiens, UniProt P00374); assay: In vitro, cell free DHFR inhibition assay; assay type: biochemical; details: cell free colorimetric assay, absorbance over 2.5 minutes
T1 construct: purchased Sigma Aldrich
T1 sequence (P00374 1-187): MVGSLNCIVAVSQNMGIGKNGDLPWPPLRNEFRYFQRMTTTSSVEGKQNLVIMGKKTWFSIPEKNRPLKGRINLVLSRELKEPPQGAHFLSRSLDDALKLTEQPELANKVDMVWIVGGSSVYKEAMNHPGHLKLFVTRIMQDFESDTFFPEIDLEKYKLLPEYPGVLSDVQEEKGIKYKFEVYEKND
Protocol: In vitro, cell free DHFR inhibition assay
The DHFR calorimetric assay was purchased from Sigma Aldrich, and was performed according to instructions. Briefly, DHFR was mixed with inhibitor and NADPH.
The percent of control was plotted, and a fit using a power regression line used.

A2780/AD cells = assay: In vitro cytotoxicity (WSK-8) assay; assay type: cell-based
Protocol: In vitro cytotoxicity (WSK-8) assays
The proliferation of exponential phase cultures of A2780/AD cells was assessed by colorimetric assay (WSK-8). In brief, cells were plated onto a 96 well microtiter plates at 5,000 cells per well. After a 24 hour incubation period to facilitate adherence, the RPMI media was removed and replaced with 100 or 200 μL of fresh media containing the different concentrations of drug. The cells were then incubated for 1 or 3 days at 37 °C at 95% humidity and 5% CO2. The media was then removed, and replaced with 100 μL fresh media containing 10% WSK-8 dye. The plates were incubated for 1.5 hours and subsequently measured at 450 nm with a 96-well plate reader. A non-linear curve fitted to the concentrations tested was used and the data plotted using Origin software. Each concentration was run in triplicate, and drug was tested 3 times.

[3] = Stability study in PBS buffer (HPLC); assay type: physicochemical; details: phosphate buffered saline pH 7.4, 37 °C
Protocol: To explain the in vitro results, the stability of the compounds was examined. (3) was dissolved in phosphate buffered saline at a pH of 7.4, and incubated at 37 °C. Time points were taken at 24 and 72 hours. […] While not completely stable over the time tested, the stability of the carbamate linkage could be preventing the nucleoside from being released in the cell over the earlier time points. This is consistent with previous nucleoside conjugate work reported and the observation that (2) and (3) have a greater toxicity at 72 hours than the carrier system (1). The delay in the release could explain the discrepancies between the conjugated and the unconjugated systems.
(3) was dissolved in PBS buffer 1 at pH 7.4 in a concentration of [l mM]. The solution was incubated at 37 °C for 24 and 72 hours. Samples from the solution were examined using the HPLC Eclipse XDB C18 analytical column (4.6 × […]; Agilent Technologies). The method conditions were the same as the purification with a flow rate of 0.7 ml/min.

folate receptor (FR) = details: cited from earlier work
[4] = A2780/AD ovarian cancer cell line, 24 hours incubation, folate deficient media, read-out: In vitro IC50, 24 hours
[5] = A2780/AD ovarian cancer cell line, 72 hours incubation, folate deficient media, read-out: In vitro IC50, 72 hours
[6] = A2780AD, 24 h, read-out: In vitro IC50, 24 hours
[7] = A2780AD, 72 h, read-out: In vitro IC50, 72 hours

Compound	IC50 [2] [µM]	IC50 (A2780/AD cells; [4]) [mM]	IC50 (A2780/AD cells; [5]) [mM]	also measured
Nc1nc(=O)c2nc(CNc3ccc(C(=O)N[C@@H](CCC(=O)O)C(=O)O)cc3)cnc2[nH]1 [Folate, Folic acid]	–	–	–	Km [1]: 200 to 400 µM
γ-MTX-PEG-NH2 [Compound 1]	200	> 1	0.7 ± 0.1	–
γ-MTX-PEG-IUdR [Compound 3]	394	> 1	0.211 ± 0.1	Stability, free nucleoside after 24 hours ([3]; 24 hours): no sign of free nucleoside; Stability, free nucleoside after 72 hours ([3]; 72 hours): partial decomposition
Cc1cn([C@H]2C[C@H](N=[N+]=[N-])[C@@H](CO)O2)c(=O)[nH]c1=O [AZT, 3’-Azido-3’-deoxythymidine, reference compound]	–	–	–	IC50 (A2780/AD cells; [6]): > 10 mM; IC50 (A2780/AD cells; [7]): 8 ± 1 mM
CN(Cc1cnc2nc(N)nc(N)c2n1)c1ccc(C(=O)N[C@@H](CCC(=O)O)C(=O)O)cc1 [MTX, Methotrexate]	–	–	–	Lower affinity of FR for MTX over folate (folate receptor (FR); relative to folate): approximately 100 fold; Less affinity for the FR than oxidized folate (folate receptor (FR); relative to oxidized folate): 100 fold; Km [1]: 5 to 10 µM; Greater affinity for the RFC over folate ([1]; relative to folate): 100 times; IC50 (A2780/AD cells; [6]): > 10 mM; IC50 (A2780/AD cells; [7]): 7 ± 0.9 mM
γ-MTX-PEG-ddC [Compound 4]	178	> 1	0.96 ± 0.08	–
γ-MTX-PEG-AZT [Compound 2]	152	> 1	0.43 ± 0.03	–
